Consider 23 compounds from patent US7432276B2, “ABCA1 elevating compounds” (CV Therapeutics, Inc., priority 2005, dated 2008).

For the first experiment, the system named is ABCA1 mRNA. Briefly: ABCA1 mRNA induction in THP-1 cells, QuantiGene branched DNA assay. The experiment is classed as cell-based. Particulars: 10 μM test compound, 18-20 hours. The essentials: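 THP-1 cells, grown to subconfluence, treated with compounds at 10 and 3 μM in DMEM/BSA for 18–20 h. Lysates hybridized with ABCA1-specific probe 16–18 h at 53 °C; QuantiGene branched DNA luminescence gives fold increase over DMSO.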
As to `COc1cccc2c1[C@H]1Nc3ccc(-c4ccc(C(F)(F)F)cc4)cc3C(C)(C)[C@@H]1CO2` [Number 93, (12aS,6aS)-1-methoxy-7,7-dimethyl-9-[4-(trifluoromethyl)phenyl]-7,12,12a,6a-tetrahydrochromano[4,3-b]quinoline], the “ABCA1 Induction Fold Increase over DMSO Vehicle” value (“ABCA1 Induction Fold Increase” below) is 6.8 FOLD INCREASE.

Consider `COc1cccc2c1[C@H]1Nc3cc(C#N)ccc3C(C)(C)[C@H]1CO2` [Number 63, (12aS,6aR)-1-methoxy-7,7-dimethyl-7,12,12a,6a-tetrahydrochromano[4,3-b]quinoline-10-carbonitrile], for which the “ABCA1 Induction Fold Increase” value is given as 3.5 FOLD INCREASE.

Consider `CC(C)=CCOc1cccc2c1OCC1C2Nc2ccc(C(O)(C(F)(F)F)C(F)(F)F)cc2C1(C)C` (centres unmarked) [Number 25, 2-[7,7-dimethyl-4-(3-methylbut-2-enyloxy)(7,12,12a,6a-tetrahydrochromano[4,3-b]quinolin-9-yl)]-1,1,1,3,3,3-hexafluoropropan-2-ol], for which the “ABCA1 Induction Fold Increase” value is reported as 4.0 FOLD INCREASE.

On to `COc1cccc2c1C1Nc3ccc(C(C)(C)C)cc3C(C)(C)C1CO2` (centres unmarked) [Number 88, 9-(tert-butyl)-1-methoxy-7,7-dimethyl-7,12,12a,6a-tetrahydrochromano[4,3-b]quinoline], for which the “ABCA1 Induction Fold Increase” value was 6.8 FOLD INCREASE.

Consider `COc1cccc2c1OCC1C2Nc2ccc(C(N)=O)cc2C1(C)C` (centres unmarked) [Number 23, 4-methoxy-7,7-dimethyl-7,12,12a,6a-tetrahydrochromano[4,3-b]quinoline-9-carboxamide], for which the “ABCA1 Induction Fold Increase” value was found to be 6.1 FOLD INCREASE.

Take `COc1cccc2c1[C@H]1Nc3ccc(-c4ccc(C(N)=O)cc4)cc3C(C)(C)[C@H]1CO2` [Number 108, 4-((12aS,6aR)-1-methoxy-7,7-dimethyl-7,12,12a,6a-tetrahydrochromano[4,3-b]quinolin-9-yl)benzamide]: the “ABCA1 Induction Fold Increase” value stood at 4.7 FOLD INCREASE.

On to `Cc1cccc2c1OCC1C2Nc2ccc(C(N)=O)cc2C1(C)C` (centres unmarked) [Number 29, 4,7,7-trimethyl-7,12,12a,6a-tetrahydrochromano[4,3-b]quinoline-9-carboxamide], for which the “ABCA1 Induction Fold Increase” value came out at 5.8 FOLD INCREASE.

On to `CC(C)=CCOC(=O)c1ccc2c(c1)OCC1C2Nc2ccc(CB(O)O)cc2C1(C)C` (centres unmarked) [Number 11, 3-methylbut-2-enyl 9-(dihydroxyboramethyl)-7,7-dimethyl-7,12,12a,6a-tetrahydrochromano[4,3-b]quinoline-3-carboxylate], for which the “ABCA1 Induction Fold Increase” value is on record as 1.7 FOLD INCREASE.

As to `COc1cccc2c1[C@H]1Nc3ccc(C(=O)N4CCS(=O)(=O)CC4)cc3C(C)(C)[C@H]1CO2` [Number 121, ((6aR,12aS)-6a,7,12,12a-tetrahydro-1-methoxy-7,7-dimethyl-6H-chromeno[4,3-b]quinolin-9-yl)(1,1-dione-1,4-thiazaperhydroin-yl)methanone], the “ABCA1 Induction Fold Increase” value is reported as 3.2 FOLD INCREASE.

For `COc1cccc2c1OC[C@@H]1[C@@H]2Nc2ccc(Br)cc2C1(C)C` [Number 87, (12aS,6aS)-9-bromo-4-methoxy-7,7-dimethyl-7,12,12a,6a-tetrahydrochromano[4,3-b]quinoline], the “ABCA1 Induction Fold Increase” value came out at 7.4 FOLD INCREASE.

As to `CC1(C)c2cc(C(O)(C(F)(F)F)C(F)(F)F)ccc2N[C@H]2c3cc(Br)ccc3OC[C@H]21` [Number 2, 2-((6aS,12aR)-2-bromo-7,7-dimethyl(7,12,12a,6a-tetrahydrochromano[4,3-b]quinolin-9-yl))-1,1,1,3,3,3-hexafluoropropan-2-ol], the “ABCA1 Induction Fold Increase” value was found to be 5.1 FOLD INCREASE.

On to `COc1cccc2c1OCC1C2Nc2ccc(-c3cccc(C(=O)OC(C)C)c3)cc2C1(C)C` (centres unmarked) [Number 60, methylethyl 3-(4-methoxy-7,7-dimethyl-7,12,12a,6a-tetrahydrochromano[4,3-b]quinolin-9-yl)benzoate], for which the “ABCA1 Induction Fold Increase” value stood at 4.4 FOLD INCREASE.

For `CC1(C)c2cc(C(N)=O)ccc2NC2c3cccc(F)c3OCC21` (centres unmarked) [Number 50, 4-fluoro-7,7-dimethyl-7,12,12a,6a-tetrahydrochromano[4,3-b]quinoline-9-carboxamide], the “ABCA1 Induction Fold Increase” value is 5.0 FOLD INCREASE.

In the case of `CC(C)Oc1ccc2c(c1)C(C)(C)C1COc3c(F)cccc3C1N2` (centres unmarked) [Number 102, 4-fluoro-7,7-dimethyl-9-(methylethoxy)-7,12,12a,6a-tetrahydrochromano[4,3-b]quinoline], the “ABCA1 Induction Fold Increase” value was determined as 4.2 FOLD INCREASE.

`COc1cccc2c1C1Nc3ccc(C(N)=O)cc3C(C)(C)C1CO2` (centres unmarked) [Number 45, 1-methoxy-7,7-dimethyl-7,12,12a,6a-tetrahydrochromano[4,3-b]quinoline-9-carboxamide]: the “ABCA1 Induction Fold Increase” value was found to be 4.9 FOLD INCREASE.

In the case of `COc1cccc2c1[C@H]1Nc3ccc(-c4ccc(C(=O)O)cc4)cc3C(C)(C)[C@H]1CO2` [Number 106, 4-((12aS,6aR)-1-methoxy-7,7-dimethyl-7,12,12a,6a-tetrahydrochromano[4,3-b]quinolin-9-yl)benzoic acid], the “ABCA1 Induction Fold Increase” value was found to be 4.8 FOLD INCREASE.

In the case of `CCOc1cccc2c1OCC1C2Nc2ccc(C(O)(C(F)(F)F)C(F)(F)F)cc2C1(C)C` (centres unmarked) [Number 22, 2-(4-ethoxy-7,7-dimethyl(7,12,12a,6a-tetrahydrochromano[4,3-b]quinolin-9-yl))-1,1,1,3,3,3-hexafluoropropan-2-ol], the “ABCA1 Induction Fold Increase” value was 4.8 FOLD INCREASE.

The same experiment, now with this note: Homo sapiens, 10 μM test compound, 18-20 hours, read-out: ABCA1 Induction Fold Increase over DMSO Vehicle.
Regarding `CN(C)C(=O)/C=C/c1ccc2c(c1)C1Nc3ccc(C(O)(C(F)(F)F)C(F)(F)F)cc3C(C)(C)C1CO2` (centres unmarked) [Number 36, (2E)-3-{7,7-dimethyl-9-[2,2,2-trifluoro-1-hydroxy-1-(trifluoromethyl)ethyl](7,12,12a,6a-tetrahydrochromano[4,3-b]quinolin-2-yl)}-N,N-dimethylprop-2-enamide], the fold induction at 10 µM stood at 5.3.

`COc1cccc2c1[C@H]1Nc3ccc(S(=O)(=O)CC(=O)O)cc3C(C)(C)[C@H]1CO2` [Number 124, 2-((6aR,12aS)-6a,7,12,12a-tetrahydro-1-methoxy-7,7-dimethyl-6H-chromeno[4,3-b]quinolin-9-ylsulfonyl)acetic acid]: the fold induction at 10 µM came out at 3.3.

Consider `CC1(C)C2=C(Nc3ccc(B(O)O)cc31)c1ccc(C(=O)O)cc1OC2` [Number 17, 9-(dihydroxyboramethyl)-7,7-dimethyl-7,12-dihydro-6H-chromeno[4,3-b]quinoline-3-carboxylic acid], for which the fold induction at 10 µM was found to be 1.8.

Take `COc1cccc2c1OC[C@H]1[C@@H]2Nc2ccc(-c3nc(C(=O)O)co3)cc2C1(C)C` [Number 146, 2-((6aR,12aS)-6a,7,12,12a-tetrahydro-4-methoxy-7,7-dimethyl-6H-chromeno[4,3-b]quinolin-9-yl)oxazole-4-carboxylic acid]: the fold induction at 10 µM came to 8.2.

On to `COc1cccc2c1[C@@H]1[C@H](CO2)C(C)(C)c2ccccc2N1CC(=O)O` [Number 154, 2-((6aR,12aS)-6a,7-dihydro-1-methoxy-7,7-dimethyl-6H-chromeno[4,3-b]quinolin-12(12aH)-yl)acetic acid], for which the fold induction at 10 µM was 9.4.

On to `CCOP(=O)(Cc1ccc2c(c1)C(C)(C)[C@H]1COc3c(OC)cc(Br)cc3[C@H]1N2)OCC` [Number 168, diethyl ((6aR,12aS)-2-bromo-6a,7,12,12a-tetrahydro-4-methoxy-7,7-dimethyl-6H-chromeno[4,3-b]quinolin-9-yl)methylphosphonate], for which the fold induction at 10 µM was 4.
